In patent US20070225171A1 (priority 2001, published 2007):

What was measured:
[1] = test system: tomato genotype UC82L (control); test: Fruit yield assay, 2,4-D sprayed on non-transgenic tomato; type: in vivo, Lycopersicon esculentum; settings: for Total Yield (Fresh Fruit Yield) / Fruit Weight (Average Fresh Fruit Weight) / Total Flowers / Fruit per Plant / Total Fruit No.: UC82L; for Total Yield (Fresh Fruit Yield): harvested over 60 days; for Fruit Weight (Average Fresh Fruit Weight) / Total Flowers / Fruit per Plant / Total Fruit No.: 60 days; for Total Flowers: Flower Number/plant/replication/treatment; for Fruit per Plant: Fruit Number/plant/replication/treatment; for Total Fruit No.: Total Fruit Number/replication/treatment
From the text: (§1) The use of exogenously supplied synthetic auxins on agronomic crops to elicit direct non-herbicidal effects was further assessed using genetically-engineered tomato plant lines expressing a synthetic auxin metabolizing gene, and non-genetically-engineered controls. Tomato was utilized to model fruit retention (fruit set) and fruit yield. The transgenic tomato line was utilized in the T2 generation with the transgene fixed in a homozygous fashion. The tomato genotype UC82L was utilized as the control, as well as the background for tranformation with the pPZP211-PNPT-311-SAD2 binary plasmid. This genotype was chosen because it is more likely to closely approximate the behavior of field-grown tomatoes than some short-life-cycle laboratory strains of tomato.
(§2) In the same manner as for tobacco, the research was conducted in a single phase entailing characterization of response variables when plants were subjected to the maximum (1× rate=1 pound/acre of active ingredient) and low (¼×=4 ounces/acre of active ingredient) rates of exogenously applied 2,4-D. The overall experimental design was comprised of three parallel completely randomized designs with spray rate and genotype as the main factors. Three replications were performed for each treatment within each experiment. Each replication was the average of three plants that were harvested over a period of 60 days. Fruit number, fruit weight and flower number were measured directly, with average fruit weight and average fruit per plant being derived by dividing fruit weight and fruit number within a replication by the number of plants (3). Tomato fruit yield was measured on fresh fruit and recorded in grams.
(§3) Non-transgenic and transgenic seed were germinated and grown as described in Example 1 for tobacco. The transgenic tomato line was utilized in the T2 generation with the transgene fixed in a homozygous fashion.
(§4) The plants with 4 fully-extended leaves retained were sprayed as described in Example 1. Each replication (3 plants) was sprayed independently and permitted to dry before being moved back to the greenhouse for further growth for 60 days.
(§5) Fruit number, fruit weight, and flower number were measured directly during this 60-day period. Tomato fruit yield was measured on fresh fruit and recorded in grams.

[2] = test system: SAD2 - Cultivar UC82B genetically engineered to express a synthetic gene for tolerance to phenoxy herbicides; test: Fruit yield assay, 2,4-D sprayed on transgenic SAD2 tomato; type: in vivo, Lycopersicon esculentum; settings: for Total Yield (Fresh Fruit Yield) / Fruit Weight (Average Fresh Fruit Weight) / Total Flowers / Fruit per Plant / Total Fruit No.: SAD2 tomato; for Total Yield (Fresh Fruit Yield): harvested over 60 days; for Fruit Weight (Average Fresh Fruit Weight) / Total Flowers / Fruit per Plant / Total Fruit No.: 60 days; for Total Flowers: Flower Number/plant/replication/treatment; for Fruit per Plant: Fruit Number/plant/replication/treatment; for Total Fruit No.: Total Fruit Number/replication/treatment
From the text: as §1, §2
The binary plasmid pPZP211-PNPT-311-SAD2 used for transformation was the same as that used in Example 1, and tomato (Lycopersicon esculentum) cultivar UC82B (a cultivar nearly identical to UC82L) was transformed by Agrobacterium-mediated transformation of leaf tissue with the binary plasmid as described in Example 1. Transgenic plants were produced from the transformed leaf tissue as described in Example 1.
as §3, §4, §5

[3] = test system: Plants expressing the dioxygenase encoded by the tfdA gene; test: Herbicide tolerance of plants expressing the tfdA dioxygenase; type: in vivo; settings: found by applicant
From the text: See, e.g., Llewellyn and Last, in Herbicide-Resistant Crops Chapter 10, pages 159-174 (Duke, ed., CRC Lewis Publishers 1996). Preferably, additional bacterial codons of the tfdA coding sequence are replaced by plant-preferred codons to obtain better expression of the encoded dioxygenase. […] See, e.g., Llewellyn and Last, in Herbicide-Resistant Crops Chapter 10, pages 159-174 (Duke, ed., CRC Lewis Publishers 1996) and U.S. Pat. Nos. 6,100,446 and 6,153,401.

[4] = spray rate 1X (1 pound active ingredient/acre), 2,4-D isooctyl ester formulation
[5] = spray rate ¼X (4 ounces active ingredient/acre), 2,4-D isooctyl ester formulation

O=C(O)COc1ccc(Cl)cc1Cl [2,4-D, 2,4-dichlorophenoxyacetic acid]
Total Yield (Fresh Fruit Yield) [1, 4]: 35.3 grams/plant/replication/treatmen
Fruit Weight (Average Fresh Fruit Weight) ([1]; spray rate 1X): 14.1 grams/fruit/plant/replication/treatment
Total Flowers ([1]; spray rate 1X): 4.3
Fruit per Plant ([1]; spray rate 1X): 0.6
Total Fruit No. ([1]; spray rate 1X): 2.3
Total Yield (Fresh Fruit Yield) [1, 5]: 66.1 grams/plant/replication/treatmen
Fruit Weight (Average Fresh Fruit Weight) ([1]; spray rate ¼X): 26.0 grams/fruit/plant/replication/treatment
Total Flowers ([1]; spray rate ¼X): 6.0
Fruit per Plant ([1]; spray rate ¼X): 0.8
Total Fruit No. ([1]; spray rate ¼X): 3.0
effect on average fruit weight ([1]; control line, ¼× rate): increase in average fruit weight
effect on total flower number ([1]; control material, ¼× rate): reducing the number of flowers
Total Yield (Fresh Fruit Yield) [2, 4]: 131.9 grams/plant/replication/treatmen
Fruit Weight (Average Fresh Fruit Weight) ([2]; spray rate 1X): 13.7 grams/fruit/plant/replication/treatment
Total Flowers ([2]; spray rate 1X): 19.7
Fruit per Plant ([2]; spray rate 1X): 2.4
Total Fruit No. ([2]; spray rate 1X): 9.7
Total Yield (Fresh Fruit Yield) [2, 5]: 122.9 grams/plant/replication/treatmen
Fruit Weight (Average Fresh Fruit Weight) ([2]; spray rate ¼X): 14.4 grams/fruit/plant/replication/treatment
Total Flowers ([2]; spray rate ¼X): 17.3
Fruit per Plant ([2]; spray rate ¼X): 2.2
Total Fruit No. ([2]; spray rate ¼X): 8.7
effect on average fruit weight ([2]; transgenic line, ¼× rate): increase in average fruit weight
effect on total flower number ([2]; transgenic lines, ¼× rate): increasing the number of flowers
tolerance of plants to the herbicide [3]: tolerant
